Results: ChEMBL document CHEMBL1671711, “Serum and cerebrospinal fluid levels of colistin in pediatric patients” (Antimicrob Agents Chemother, 2010)

What was measured:
[1] = test system: Stenotrophomonas maltophilia; experiment: Antimicrobial activity against Stenotrophomonas maltophilia; assay type: functional, organism-based
Klebsiella pneumoniae = experiment: Antimicrobial activity against Klebsiella pneumoniae; assay type: functional, organism-based
Acinetobacter baumannii = experiment: Antimicrobial activity against Acinetobacter baumannii; assay type: functional

Measured: MIC

COLISTIN
< 0.5 µg/mL: [1] | Klebsiella pneumoniae | Acinetobacter baumannii
